# Assay results published in ChEMBL document CHEMBL1140787, “Discovery of beta-benzamido hydroxamic acids as potent, selective, and orally bioavailable TACE inhibitors” (Bioorg Med Chem Lett, 2008).
# Columns and labels:
# [1] = target: Disintegrin and metalloproteinase domain-containing protein 17 (Sus scrofa, UniProt O77636); assay: Inhibition of pig TACE
# Blood = assay: Inhibition of LPS-stimulated TNFalpha release in human whole blood; format: functional, tissue-based
# [2] = Permeability across human Caco-2 cell membrane; format: ADME, cell-based
# [3] = Oral bioavailability in Sprague-Dawley rat at 40 mg/kg; format: ADME, organism-based; conditions: in vivo
# [4] = AUC in Beagle dog at 8 mg/kg, po; format: ADME, organism-based, Canis lupus familiaris; parameters: dose 8 mg/kg, route oral; conditions: plasma
# [5] = Fraction unbound in rat serum; format: ADME, cell-free
# [6] = AUC in Sprague-Dawley rat at 40 mg/kg, po; format: ADME, organism-based; parameters: dose 40 mg/kg, route oral; conditions: plasma
# [7] = Clearance in Sprague-Dawley rat at 2 mg/kg, iv; format: ADME, organism-based; parameters: dose 2 mg/kg, route intravenous; conditions: in vivo
# [8] = Volume of distribution at steady state in Beagle dog at 2 mg/kg, iv; format: ADME, organism-based, Canis lupus familiaris; parameters: dose 2 mg/kg, route intravenous; conditions: in vivo, read-out: Vdss
# Cytochrome P450 3A4 = Cytochrome P450 3A4 (Homo sapiens, UniProt P08684); assay: Inhibition of CYP3A4 at 20 uM; format: ADME
# [9] = Half life in Sprague-Dawley rat at 2 mg/kg, iv; format: ADME, organism-based; parameters: dose 2 mg/kg, route intravenous; conditions: in vivo
# [10] = Fraction unbound in human serum; format: ADME, cell-free
# Rattus norvegicus = assay: Inhibition of LPS-induced TNFalpha production in po dosed rat endotoxemia model; format: functional
# Mus musculus = assay: Inhibition of LPS-induced TNFalpha production in po dosed mouse endotoxemia model; format: functional
# [11] = Oral bioavailability in Beagle dog at 8 mg/kg; format: ADME, organism-based, Canis lupus familiaris; conditions: in vivo
# [12] = Clearance in Beagle dog at 2 mg/kg, iv; format: ADME, organism-based, Canis lupus familiaris; parameters: dose 2 mg/kg, route intravenous; conditions: in vivo
# Matrilysin = target: T1, Matrilysin (Homo sapiens, UniProt P09237); assay: Inhibition of MMP7
# T1 sequence (P09237 whole entry): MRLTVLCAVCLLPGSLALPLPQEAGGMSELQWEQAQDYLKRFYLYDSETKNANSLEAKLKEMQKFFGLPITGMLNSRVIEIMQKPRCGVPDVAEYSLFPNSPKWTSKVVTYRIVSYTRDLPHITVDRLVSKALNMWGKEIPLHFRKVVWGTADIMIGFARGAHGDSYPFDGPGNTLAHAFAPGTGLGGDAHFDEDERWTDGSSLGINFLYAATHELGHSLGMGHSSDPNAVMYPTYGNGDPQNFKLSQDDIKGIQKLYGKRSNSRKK
# [13] = target: Macrophage metalloelastase (Homo sapiens, UniProt P39900); assay: Inhibition of MMP12
# [14] = AUC in Sprague-Dawley rat at 2 mg/kg, iv; format: ADME, organism-based; parameters: dose 2 mg/kg, route intravenous; conditions: plasma
# [15] = Volume of distribution at steady state in Sprague-Dawley rat at 2 mg/kg, iv; format: ADME, organism-based; parameters: dose 2 mg/kg, route intravenous; conditions: in vivo, read-out: Vdss
# [16] = Tmax in Beagle dog at 8 mg/kg, po; format: ADME, organism-based, Canis lupus familiaris; parameters: dose 8 mg/kg, route oral; conditions: in vivo
# [17] = Tmax in Sprague-Dawley rat at 40 mg/kg, po; format: ADME, organism-based; parameters: dose 40 mg/kg, route oral; conditions: in vivo
# Stromelysin-1 = Stromelysin-1 (Homo sapiens, UniProt P08254); assay: Inhibition of MMP3
# [18] = Fraction unbound in dog serum; format: ADME, cell-free, Canis lupus familiaris
# [19] = AUC in Beagle dog at 2 mg/kg, iv; format: ADME, organism-based, Canis lupus familiaris; parameters: dose 2 mg/kg, route intravenous; conditions: plasma
# Stromelysin-2 = Stromelysin-2 (Homo sapiens, UniProt P09238); assay: Inhibition of MMP10
# [20] = Half life in Beagle dog at 2 mg/kg, iv; format: ADME, organism-based, Canis lupus familiaris; parameters: dose 2 mg/kg, route intravenous; conditions: in vivo
# Sequence of Disintegrin and metalloproteinase domain-containing protein 17 (O77636 whole entry, the tested form may be a part): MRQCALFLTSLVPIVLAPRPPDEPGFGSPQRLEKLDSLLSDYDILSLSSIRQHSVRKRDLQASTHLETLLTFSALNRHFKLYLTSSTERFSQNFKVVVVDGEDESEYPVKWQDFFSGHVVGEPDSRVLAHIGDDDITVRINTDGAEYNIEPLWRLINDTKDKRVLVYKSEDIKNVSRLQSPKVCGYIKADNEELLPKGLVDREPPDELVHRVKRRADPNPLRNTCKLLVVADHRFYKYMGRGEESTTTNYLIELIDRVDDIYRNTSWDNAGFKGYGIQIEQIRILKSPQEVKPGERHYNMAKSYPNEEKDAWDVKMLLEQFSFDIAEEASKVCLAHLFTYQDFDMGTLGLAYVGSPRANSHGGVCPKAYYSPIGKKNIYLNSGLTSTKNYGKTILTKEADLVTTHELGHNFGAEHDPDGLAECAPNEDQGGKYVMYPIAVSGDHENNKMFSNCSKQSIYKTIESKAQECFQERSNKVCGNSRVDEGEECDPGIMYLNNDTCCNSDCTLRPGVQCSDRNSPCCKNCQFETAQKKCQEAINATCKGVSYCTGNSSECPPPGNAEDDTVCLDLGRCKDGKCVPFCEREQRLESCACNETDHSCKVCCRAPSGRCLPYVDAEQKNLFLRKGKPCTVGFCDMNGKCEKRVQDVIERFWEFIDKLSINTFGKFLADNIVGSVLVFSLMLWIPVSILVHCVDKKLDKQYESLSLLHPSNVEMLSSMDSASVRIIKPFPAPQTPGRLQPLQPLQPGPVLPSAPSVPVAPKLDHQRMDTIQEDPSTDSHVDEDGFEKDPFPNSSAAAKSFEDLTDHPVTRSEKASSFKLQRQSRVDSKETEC
# Sequence of Macrophage metalloelastase (P39900 whole entry): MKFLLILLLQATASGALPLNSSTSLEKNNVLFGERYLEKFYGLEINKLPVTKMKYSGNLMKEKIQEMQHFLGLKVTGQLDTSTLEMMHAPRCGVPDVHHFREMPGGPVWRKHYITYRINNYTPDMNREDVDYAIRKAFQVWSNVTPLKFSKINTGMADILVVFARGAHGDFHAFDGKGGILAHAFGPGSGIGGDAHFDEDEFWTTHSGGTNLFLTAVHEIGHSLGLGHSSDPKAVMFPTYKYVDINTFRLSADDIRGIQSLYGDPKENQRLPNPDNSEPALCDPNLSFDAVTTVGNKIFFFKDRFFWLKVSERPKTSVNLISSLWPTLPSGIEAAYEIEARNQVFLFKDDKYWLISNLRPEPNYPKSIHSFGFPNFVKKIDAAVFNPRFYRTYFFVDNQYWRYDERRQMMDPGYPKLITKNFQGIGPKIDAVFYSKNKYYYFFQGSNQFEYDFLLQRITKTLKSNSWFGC
# Sequence of Cytochrome P450 3A4 (P08684 whole entry): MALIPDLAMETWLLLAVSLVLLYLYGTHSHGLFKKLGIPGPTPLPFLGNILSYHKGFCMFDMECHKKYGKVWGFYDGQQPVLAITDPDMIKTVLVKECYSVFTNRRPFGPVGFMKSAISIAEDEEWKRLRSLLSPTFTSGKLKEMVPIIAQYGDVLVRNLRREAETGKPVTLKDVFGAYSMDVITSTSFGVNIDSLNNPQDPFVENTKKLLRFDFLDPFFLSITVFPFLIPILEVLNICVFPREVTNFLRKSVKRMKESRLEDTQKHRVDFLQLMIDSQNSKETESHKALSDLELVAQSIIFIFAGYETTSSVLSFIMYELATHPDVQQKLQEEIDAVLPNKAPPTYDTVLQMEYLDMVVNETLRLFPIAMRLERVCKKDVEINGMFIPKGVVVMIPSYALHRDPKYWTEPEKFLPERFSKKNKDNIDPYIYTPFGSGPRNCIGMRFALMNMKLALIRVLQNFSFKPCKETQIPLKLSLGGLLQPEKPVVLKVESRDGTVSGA
# Sequence of Stromelysin-1 (P08254 whole entry): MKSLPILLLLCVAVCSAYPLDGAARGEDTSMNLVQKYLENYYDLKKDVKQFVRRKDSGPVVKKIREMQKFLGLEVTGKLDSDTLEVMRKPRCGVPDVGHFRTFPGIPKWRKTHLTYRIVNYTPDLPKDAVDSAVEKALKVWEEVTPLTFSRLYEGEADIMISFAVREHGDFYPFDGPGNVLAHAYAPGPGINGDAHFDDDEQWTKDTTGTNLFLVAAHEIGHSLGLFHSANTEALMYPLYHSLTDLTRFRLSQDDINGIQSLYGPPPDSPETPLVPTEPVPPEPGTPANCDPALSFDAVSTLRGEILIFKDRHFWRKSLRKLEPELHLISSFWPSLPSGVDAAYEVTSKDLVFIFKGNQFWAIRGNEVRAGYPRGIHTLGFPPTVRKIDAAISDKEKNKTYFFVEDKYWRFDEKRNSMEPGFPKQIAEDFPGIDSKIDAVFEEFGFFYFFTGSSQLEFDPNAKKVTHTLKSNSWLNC
# Sequence of Stromelysin-2 (P09238 whole entry): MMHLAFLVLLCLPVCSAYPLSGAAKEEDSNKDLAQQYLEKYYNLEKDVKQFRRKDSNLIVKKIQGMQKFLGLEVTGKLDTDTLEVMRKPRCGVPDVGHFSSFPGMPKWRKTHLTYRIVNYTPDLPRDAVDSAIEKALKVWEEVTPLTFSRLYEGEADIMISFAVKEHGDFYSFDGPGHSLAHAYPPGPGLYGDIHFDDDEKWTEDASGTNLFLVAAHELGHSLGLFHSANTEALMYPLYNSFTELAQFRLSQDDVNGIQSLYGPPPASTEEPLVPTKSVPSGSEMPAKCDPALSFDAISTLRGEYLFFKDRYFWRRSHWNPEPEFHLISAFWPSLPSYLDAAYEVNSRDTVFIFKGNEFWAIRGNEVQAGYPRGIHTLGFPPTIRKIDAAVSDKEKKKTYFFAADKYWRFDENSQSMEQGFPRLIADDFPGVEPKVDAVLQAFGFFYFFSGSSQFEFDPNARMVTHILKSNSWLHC
smiles,measurement,setting,value
Cc1cc(COc2ccc(C(=O)N[C@@H]3CNCC[C@@H]3C(=O)NO)cc2)c2ccccc2n1,IC50,[1],1 nM
same,IC50,Blood,187 nM
same,Papp,[2],0.2 ×10⁻⁶ cm/s
Cc1cc(COc2ccc(C(=O)NC3CCC3C(=O)NO)cc2)c2ccccc2n1 (configuration not stated),IC50,[1],1 nM
same,IC50,Blood,2860 nM
same,Papp,[2],0.4 ×10⁻⁶ cm/s
Cc1cc(COc2ccc(C(=O)N[C@H]3CNCC[C@@H]3C(=O)NO)cc2)c2ccccc2n1,IC50,[1],< 1 nM
same,IC50,Blood,393 nM
Cc1cc(COc2ccc(C(=O)N[C@@H]3COCC[C@@H]3C(=O)NO)cc2)c2ccccc2n1,IC50,[1],< 1 nM
same,IC50,Blood,290 nM
same,Papp,[2],0.4 ×10⁻⁶ cm/s
Cc1cc(COc2ccc(C(=O)N[C@@H]3CCNC[C@@H]3C(=O)NO)cc2)c2ccccc2n1,IC50,[1],24 nM
same,IC50,Blood,620 nM
same,Papp,[2],0.2 ×10⁻⁶ cm/s
Cc1cc(COc2ccc(NC(=O)[C@@H]3[C@@H](C(=O)NO)CCCN3C)cc2)c2ccccc2n1,IC50,Blood,20 nM
Cc1cc(COc2ccc(C(=O)N[C@@H]3CCCC[C@H]3C(=O)NO)cc2)c2ccccc2n1,IC50,[1],2 nM
same,IC50,Blood,> 3000 nM
Cc1cc(COc2ccc(C(=O)N[C@@H]3CCCC[C@@H]3C(=O)NO)cc2)c2ccccc2n1,IC50,[1],2 nM
same,IC50,Blood,890 nM
same,Papp,[2],3.4 ×10⁻⁶ cm/s
Cc1cc(COc2ccc(C(=O)N[C@@H]3CCOC[C@@H]3C(=O)NO)cc2)c2ccccc2n1,bioavailability,[3],58%
same,AUC,[4],11 µM·h
same,fraction unbound,[5],0.038
same,AUC,[6],65 µM·h
same,clearance,[7],11.7 mL/min/kg
same,Vd,[8],1.6 L/kg
same,Activity,Cytochrome P450 3A4,Not Active
same,half-life,[9],84 min
same,fraction unbound,[10],0.075
same,ED50,Rattus norvegicus,3 mg/kg
same,ED50,Mus musculus,2.2 mg/kg
same,bioavailability,[11],96%
same,clearance,[12],28.3 mL/min/kg
same,Ki,Matrilysin,< 100 nM
same,Ki,[13],< 100 nM
same,AUC,[14],5.7 µM·h
same,Vd,[15],0.4 L/kg
same,Tmax,[16],12 min
same,Tmax,[17],24 min
same,Ki,Stromelysin-1,< 100 nM
same,fraction unbound,[18],0.17
same,AUC,[19],2.7 µM·h
same,IC50,[1],< 1 nM
same,Ki,[1],0.15 nM
same,Ki,Stromelysin-2,< 100 nM
same,IC50,Blood,130 nM
same,Papp,[2],2.3 ×10⁻⁶ cm/s
same,half-life,[20],96 min
Cc1cc(COc2ccc(C(=O)N[C@@H]3CN(CCN(C)C)CC[C@@H]3C(=O)NO)cc2)c2ccccc2n1,IC50,[1],2 nM
same,IC50,Blood,55 nM
same,Papp,[2],0.1 ×10⁻⁶ cm/s
Cc1cc(COc2ccc(C(=O)N[C@@H]3CN(C(C)(C)C)CC[C@@H]3C(=O)NO)cc2)c2ccccc2n1,IC50,[1],2 nM
same,IC50,Blood,44 nM
same,Papp,[2],0.6 ×10⁻⁶ cm/s
Cc1cc(COc2ccc(C(=O)N[C@@H]3CCCO[C@@H]3C(=O)NO)cc2)c2ccccc2n1,IC50,[1],3 nM
same,IC50,Blood,4110 nM
same,Papp,[2],0.06 ×10⁻⁶ cm/s
